The text below walks through data of PMC2862695 (The Journal of organic chemistry, 2009).

Usually Kd stands for the equilibrium constant for the complex coming apart.

The target in one assay is MEK1 (Homo sapiens, UniProt Q02750). The assay can be described thus: dissociation constant against MEK1. Format: binding. The note with it: read-out: Kd MEK1.
In assay [1] the test system is iron-mediated neuronal damage. The note with it: likely by reduced phosphorylation of hemeoxygenase by ERK; cited from earlier work.
The next assay concerns panel of 442 kinases. The assay can be described thus: kinase selectivity panel of 442 kinases. The conditions noted are these: 10 μM, 386 nonmutant. Type of assay: binding.
The next assay addresses EGFR (Homo sapiens, UniProt P00533). The assay can be described thus: dissociation constant against EGFR. Format: binding. The note with it: read-out: Kd EGFR.

Structures are written as SMILES.

MEK1, sequence (Q02750 whole entry): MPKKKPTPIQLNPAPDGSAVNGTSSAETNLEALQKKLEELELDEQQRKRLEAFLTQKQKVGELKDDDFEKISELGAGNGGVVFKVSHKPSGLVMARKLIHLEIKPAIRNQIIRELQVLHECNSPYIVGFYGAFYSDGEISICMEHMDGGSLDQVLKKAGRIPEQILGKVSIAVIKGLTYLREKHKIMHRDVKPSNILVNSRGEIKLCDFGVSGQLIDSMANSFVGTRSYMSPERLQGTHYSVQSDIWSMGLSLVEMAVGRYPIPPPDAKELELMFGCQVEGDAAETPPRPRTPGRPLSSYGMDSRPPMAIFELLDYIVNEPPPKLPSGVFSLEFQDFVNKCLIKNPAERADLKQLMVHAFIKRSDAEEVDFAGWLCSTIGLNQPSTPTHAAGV
EGFR, sequence (P00533 25-1210): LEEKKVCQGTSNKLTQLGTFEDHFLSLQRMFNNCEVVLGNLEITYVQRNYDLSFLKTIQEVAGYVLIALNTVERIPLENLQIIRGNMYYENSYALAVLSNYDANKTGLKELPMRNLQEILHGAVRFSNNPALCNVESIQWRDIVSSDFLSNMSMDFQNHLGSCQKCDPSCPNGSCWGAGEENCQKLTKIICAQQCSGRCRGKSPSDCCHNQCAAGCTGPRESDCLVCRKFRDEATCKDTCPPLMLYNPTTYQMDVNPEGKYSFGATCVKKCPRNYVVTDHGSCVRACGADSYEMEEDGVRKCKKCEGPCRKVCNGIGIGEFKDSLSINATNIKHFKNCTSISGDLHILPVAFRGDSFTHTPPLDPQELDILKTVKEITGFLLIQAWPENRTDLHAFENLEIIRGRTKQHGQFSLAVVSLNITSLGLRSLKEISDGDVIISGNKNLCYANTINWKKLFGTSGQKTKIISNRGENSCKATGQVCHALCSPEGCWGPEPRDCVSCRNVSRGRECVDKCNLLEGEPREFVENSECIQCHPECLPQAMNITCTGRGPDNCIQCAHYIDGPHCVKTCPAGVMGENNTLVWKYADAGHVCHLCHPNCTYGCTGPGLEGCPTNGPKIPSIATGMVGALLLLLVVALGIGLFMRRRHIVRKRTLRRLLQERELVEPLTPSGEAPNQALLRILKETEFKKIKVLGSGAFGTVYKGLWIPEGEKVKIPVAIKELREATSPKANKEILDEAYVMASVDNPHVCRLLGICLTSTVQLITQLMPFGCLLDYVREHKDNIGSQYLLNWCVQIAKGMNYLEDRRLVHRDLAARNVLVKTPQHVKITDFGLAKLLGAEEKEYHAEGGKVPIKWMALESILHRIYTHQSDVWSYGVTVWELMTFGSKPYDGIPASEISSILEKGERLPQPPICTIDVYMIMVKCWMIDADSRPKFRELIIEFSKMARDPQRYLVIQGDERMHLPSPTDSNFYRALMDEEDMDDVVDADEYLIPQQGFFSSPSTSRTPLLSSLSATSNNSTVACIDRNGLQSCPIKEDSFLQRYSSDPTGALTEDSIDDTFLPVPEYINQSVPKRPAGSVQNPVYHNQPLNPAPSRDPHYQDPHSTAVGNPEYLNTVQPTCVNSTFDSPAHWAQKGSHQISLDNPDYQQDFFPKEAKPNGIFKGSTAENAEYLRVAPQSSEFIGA

Consider `Nc1[nH]nc2nnc(-c3c(-c4ccccc4)nn4ccccc34)cc12` [FR180204], for which the Kd on MEK1 is 8.7 µM. Further, the “effect on iron-mediated neuronal damage caused by hemoglobin breakdown” value in assay [1] is given as “can reduce iron-mediated neuronal damage”. Further, in the assay with panel of 442 kinases, the “number of nonmutant kinases with >90% inhibition of kinase activity” value is 29/386 and the “number of nonmutant kinases with >99% inhibition of kinase activity” value was 12 out of 386. Further, the dissociation constant Kd on EGFR stood at 1200 nM.
